Values joined by “and” are separate entries in the source; they are usually repeats but may differ in a detail not shown here. Identical values can stand only once. Like-named read-outs stand apart in the source and are kept apart here.
Columns and labels:
A549 = assay: In vitro anti-proliferative MTT assay, A549; assay type: cell-based, human; settings: for IC50: Homo sapiens, A549
Protocol: These two cell lines were selected in this test due to the overexpression of EGFR in human lung and colon cancer cell lines[48]^,[49]. The tested cells were reported to have a high expression level of EGFR. […]
(§1) 1.1. In vitro antiproliferative activities
The in vitro antiproliferative activities of all the synthesized compounds against two human […]
evaluated quantitatively as described in the literature, using MTT assay protocol . two […]
proliferative activity was assessed quantitatively as follows.
(§2) Human cancer cell lines were dropped in 96 -well plates at a density of 3-8 × 10^3 cells/well.
Next, the wells were incubated for 12 h in a 5% CO 2 incubator at 37 °C. Then, for each well, the growth medium was exchanged with 0.1 ml of fresh medium containing graded concentrations of the test compounds to be or equal DMSO and incubated for two days. Then 10 μl MTT solution ([…]) was added to each well, and the cells were incubated for additional 4 h. The crystals of MTT-formazan were dissolved in 100 μl of DMSO; the absorbance of each well was measured at 490 nm using an automatic ELISA reader system (TECAN, CHE). The IC 50 values were calculated using the nonlinear regression fitting models (Graph Pad, Prism Version 5). The data represented the mean of three independent experiments in triplicate and were expressed as means ± SD. The […]
(§3) The results were expressed as growth inhibitory concentration (IC50) values and […]

A549 cells = assay: Cell cycle analysis (flow cytometry, PI staining); assay type: cell-based, human
Protocol: The effect of compound 12b on cell cycle distribution was performed using the propidium iodide (PI) staining technique as described in Supplementary data[56–58]. […]
4.1.2. In-vitro DNA-Flow cytometric (cell cycle) analysis.
h. Then, the tested cells were collected by trypsinization and washed in PBS. Ice-cold absolute
ethanol was used for fixation of the collected cells. The cells were stained with Cycle TESTTM
PLUS DNA Reagent Kit (BD Biosciences, San Jose, CA) according to the manufacturer's
instructions. Cell-cycle distribution was evaluated using a flow cytometer. […]

EGFR^T790M = target: T1, EGFR^T790M (Homo sapiens, UniProt P00533, T790M); assay: EGFR^T790M kinase inhibitory assay (HTRF); assay type: biochemical
T1 construct: purchased Sigma
Protocol: (§4) In vitro EGFR inhibitory activity was assessed using a Homogeneous time-resolved fluorescence (HTRF) assay[56] as described in Supplementary data.
(§5) 4.1.1. EGFRWT and EGFRT790M kinase inhibitory assay […]
(§6) against four cancer cell lines were further examined for their inhibitory activities against both […]
(§7) Homogeneous time resolved fluorescence (HTRF) assay was applied in this test. EGFRWT, EGFRT790M (Sigma). firstly, the EGFRWT and/or EGFRT790M and their substrates were incubated with the tested compounds in enzymatic buffer for 5 min. […]
(§8) the enzymatic reaction. The assay was conducted for 30 min at room temperature. The reaction was stopped by addition of detection reagents which contain EDTA. The detection step continued […]
(§9) experiments were performed for each concentration. […]

HCT-116 = assay: In vitro anti-proliferative MTT assay, HCT-116; assay type: cell-based, human
Protocol: The cytotoxic activities of the synthesised compounds were assessed against two human cancer cell lines (lung, A549) and (colon HCT-116) using an MTT assay. These two cell lines were selected in this test due to the overexpression of EGFR in human lung and colon cancer cell lines[48]^,[49]. The tested cells were reported to have a high expression level of EGFR.
In vitro cytotoxicity was carried out for the synthesised compounds against A549, HCT-116, and WI-38 cell lines using the MTT assay protocol[52–55] as described in Supplementary data. […]
as §1
The in vitro antiproliferative activities of all the synthesized compounds against two human tumor cell lines namely, (lung, A549) and (colon HCT-116) and one normal cell line (WI-38) were evaluated quantitatively as described in the literature, using MTT assay protocol . two commercially available drugs (erlotinib) were used in this test as positive controls. The anti-proliferative activity was assessed quantitatively as follows.
as §2
Next, the wells were incubated for 12 h in a 5% CO 2 incubator at 37 °C. Then, for each well, the growth medium was exchanged with 0.1 ml of fresh medium containing graded concentrations of the test compounds to be or equal DMSO and incubated for two days. Then 10 μl MTT solution ([…]) was added to each well, and the cells were incubated for additional 4 h. The crystals of MTT-formazan were dissolved in 100 μl of DMSO; the absorbance of each well was measured at 490 nm using an automatic ELISA reader system (TECAN, CHE). The IC 50 values were calculated using the nonlinear regression fitting models (Graph Pad, Prism Version 5). The data represented the mean of three independent experiments in triplicate and were expressed as means ± SD. The IC50 value was defined as the concentration at which 50% of the cells could survive.
as §3

in vitro = settings: human, WI-38 normal cells
Protocol: Next, the wells were incubated for 12 h in a 5% CO 2 incubator at 37 °C. Then, for each well, the growth medium was exchanged with 0.1 ml of fresh medium containing graded concentrations of the test compounds to be or equal DMSO and incubated for two days. Then 10 μl MTT solution (5 μg/ml) was added to each well, and the cells were incubated for additional 4 h. The crystals of MTT-formazan were dissolved in 100 μl of DMSO; the absorbance of each well was measured at 490 nm using an automatic ELISA reader system (TECAN, CHE). The IC 50 values were calculated using the nonlinear regression fitting models (Graph Pad, Prism Version 5). The data represented the mean of three independent experiments in triplicate and were expressed as means ± SD.

BAX = assay: qRT-PCR gene expression of BAX in A549 cells; assay type: cell-based, human; settings: A549, 48 h, control set to 1
Protocol: (§10) The effect of compound 12b on the expression of BAX and Bcl‐2 was determined using qRT-PCR as described in Supplementary data[60–62].

BAX/Bcl-2 ratio = BAX/Bcl-2 ratio from qRT-PCR in A549 cells; assay type: cell-based, human; settings: A549, 48 h, control set to 1
Protocol: as §10

EGFR^WT = target: T2, EGFR^WT (Homo sapiens, UniProt P00533); assay: EGFR^WT kinase inhibitory assay (HTRF); assay type: biochemical
T2 construct: purchased Sigma
Protocol: as §4, §5, §6, §7, §8, §9

[1] = A549, 8.21 µM, 48 h, mean ± SEM
[2] = A549, 8.21 µM, 48 h, mean ± SEM, listed as 12 b
[3] = supplement graph, axis Log (nM)

T2 sequence (P00533 25-1210): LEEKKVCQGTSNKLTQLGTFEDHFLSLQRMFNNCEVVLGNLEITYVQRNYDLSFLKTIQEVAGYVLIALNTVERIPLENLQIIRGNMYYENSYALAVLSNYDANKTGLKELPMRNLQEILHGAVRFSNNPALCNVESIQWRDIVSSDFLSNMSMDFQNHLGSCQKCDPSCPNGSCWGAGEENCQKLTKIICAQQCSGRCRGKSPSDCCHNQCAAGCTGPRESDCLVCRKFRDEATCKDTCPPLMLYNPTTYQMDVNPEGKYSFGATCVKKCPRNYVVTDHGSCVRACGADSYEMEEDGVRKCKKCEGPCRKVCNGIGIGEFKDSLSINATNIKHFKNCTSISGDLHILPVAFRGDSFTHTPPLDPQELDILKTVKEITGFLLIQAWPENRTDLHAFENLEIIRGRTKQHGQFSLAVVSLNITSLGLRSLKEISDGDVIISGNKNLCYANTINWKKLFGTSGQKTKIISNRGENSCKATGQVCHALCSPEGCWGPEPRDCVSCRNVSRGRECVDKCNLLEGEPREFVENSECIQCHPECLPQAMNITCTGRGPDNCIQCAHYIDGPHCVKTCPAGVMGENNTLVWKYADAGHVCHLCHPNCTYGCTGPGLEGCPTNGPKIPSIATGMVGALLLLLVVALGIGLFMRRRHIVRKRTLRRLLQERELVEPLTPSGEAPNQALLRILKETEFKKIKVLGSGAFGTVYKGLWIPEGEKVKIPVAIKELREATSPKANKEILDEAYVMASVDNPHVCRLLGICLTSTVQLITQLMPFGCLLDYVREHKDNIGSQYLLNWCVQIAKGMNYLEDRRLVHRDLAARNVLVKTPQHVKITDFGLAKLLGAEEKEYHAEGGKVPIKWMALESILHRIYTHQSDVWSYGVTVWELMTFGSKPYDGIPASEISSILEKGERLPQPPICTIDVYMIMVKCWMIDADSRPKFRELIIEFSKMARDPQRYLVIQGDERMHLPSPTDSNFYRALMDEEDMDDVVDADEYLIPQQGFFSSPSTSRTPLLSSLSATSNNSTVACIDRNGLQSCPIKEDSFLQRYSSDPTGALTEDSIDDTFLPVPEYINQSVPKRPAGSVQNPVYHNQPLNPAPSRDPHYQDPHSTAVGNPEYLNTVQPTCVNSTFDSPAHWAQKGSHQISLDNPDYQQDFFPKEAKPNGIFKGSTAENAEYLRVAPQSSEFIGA
T1 sequence (P00533 25-1210 T790M): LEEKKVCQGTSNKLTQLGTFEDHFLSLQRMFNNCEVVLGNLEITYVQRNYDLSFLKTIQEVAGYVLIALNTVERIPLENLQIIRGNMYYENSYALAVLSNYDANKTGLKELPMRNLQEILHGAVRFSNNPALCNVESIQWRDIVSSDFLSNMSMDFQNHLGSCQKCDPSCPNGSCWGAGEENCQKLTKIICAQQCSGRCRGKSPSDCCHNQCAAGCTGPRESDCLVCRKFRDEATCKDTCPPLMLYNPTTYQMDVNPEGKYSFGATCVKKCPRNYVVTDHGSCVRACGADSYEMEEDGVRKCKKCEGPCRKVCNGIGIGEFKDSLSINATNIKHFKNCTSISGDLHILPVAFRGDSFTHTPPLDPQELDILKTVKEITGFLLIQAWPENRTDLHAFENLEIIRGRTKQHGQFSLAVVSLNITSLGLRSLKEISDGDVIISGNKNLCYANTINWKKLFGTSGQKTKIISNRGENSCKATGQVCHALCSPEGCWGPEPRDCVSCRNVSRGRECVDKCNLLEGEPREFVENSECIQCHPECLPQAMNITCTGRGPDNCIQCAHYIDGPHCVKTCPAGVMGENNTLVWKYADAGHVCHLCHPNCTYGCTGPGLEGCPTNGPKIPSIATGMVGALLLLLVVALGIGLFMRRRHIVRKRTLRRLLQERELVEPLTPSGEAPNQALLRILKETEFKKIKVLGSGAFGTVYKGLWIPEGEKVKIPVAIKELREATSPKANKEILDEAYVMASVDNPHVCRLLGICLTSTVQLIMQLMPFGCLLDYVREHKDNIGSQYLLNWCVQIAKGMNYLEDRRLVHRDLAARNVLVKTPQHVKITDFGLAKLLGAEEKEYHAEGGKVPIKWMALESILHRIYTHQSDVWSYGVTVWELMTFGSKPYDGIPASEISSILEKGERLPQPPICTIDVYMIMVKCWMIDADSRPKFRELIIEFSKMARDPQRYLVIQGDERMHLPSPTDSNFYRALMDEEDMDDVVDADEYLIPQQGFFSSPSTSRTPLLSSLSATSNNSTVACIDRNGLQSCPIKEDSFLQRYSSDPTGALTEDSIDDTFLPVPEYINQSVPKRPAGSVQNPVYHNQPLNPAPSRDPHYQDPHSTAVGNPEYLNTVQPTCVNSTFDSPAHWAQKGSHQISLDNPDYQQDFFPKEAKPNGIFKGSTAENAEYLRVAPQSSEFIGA

CC(=NNc1nc(Nc2ccccc2)nc2c1cnn2-c1ccccc1)c1ccc(Cl)cc1 [Compound 12b, 4–(2-(1–(4-Chlorophenyl)ethylidene)hydrazinyl)-N,1-diphenyl-1H-pyrazolo[3,4-d]pyrimidin-6-amine]
IC50 (A549; MTT, mean of three experiments, read-out: In vitro cytotoxicity IC50, A549): 8.21 µM
IC50 (A549; supplement IC50 graph, unit inferred, read-out: IC50 (best-fit value of graph), A549): 8.22 µM
HillSlope (best-fit value), A549 (A549; supplement IC50 graph): -0.3430
LogIC50 (best-fit value), A549 (A549; supplement IC50 graph): 0.9146
cell cycle arrest, phases (A549 cells; A549): S and G2/M phases
Cell cycle distribution % G2/M (A549 cells; [1]): 28.55%
Cell cycle distribution %G1 (A549 cells; [1]): 28.04%
Cell cycle distribution %S (A549 cells; [1]): 42.39%
Cell cycle distribution %Sub-G1 (A549 cells; [1]): 0.89 ± 0.31%
Cell cycle distribution % G2/M (A549 cells; [2]): 28.55 ± 1.61 %
Cell cycle distribution %G1 (A549 cells; [2]): 28.04 ± 2.78 %
Cell cycle distribution %S (A549 cells; [2]): 42.39 ± 3.50 %
fold decrease in percentage of cells in G1 phase (A549 cells; vs untreated A549, 48 h): ~2 fold
fold increase in % G2/M (A549 cells; vs untreated A549, 48 h): 1.7 fold
fold increase in percentage of cells in S phase (A549 cells; vs untreated A549, 48 h): 1.5 fold
fold more potent than erlotinib against EGFR^T790M (EGFR^T790M): 2.4 fold
IC50 (EGFR^T790M; HTRF, mean of three experiments, read-out: EGFR^T790M IC50): 236 nM
HillSlope (best-fit value), EGFRT790M inhibition (EGFR^T790M; supplement graph): -0.3418
LogIC50 (best-fit value), EGFRT790M inhibition (EGFR^T790M; [3]): 2.372
IC50 (EGFR^T790M; supplement graph, axis Log (nM), read-out: IC50 (best-fit value of graph), EGFRT790M inhibition): 235 nM
IC50 (HCT-116; Homo sapiens, HCT-116, MTT, mean of three experiments, read-out: In vitro cytotoxicity IC50, HCT-116): 19.6 µM
HillSlope (best-fit value), HCT-116 (HCT-116; supplement IC50 graph): -0.3805
LogIC50 (best-fit value), HCT-116 (HCT-116; supplement IC50 graph): 1.291
IC50 at 2 days (in vitro): 39.1 µM
Gene expression (Fold Change) BAX (BAX): 3.3 Fold Change and 3.33 ± 0.37 Fold Change
Gene expression (Fold Change) BAX/Bcl-2 ratio (BAX/Bcl-2 ratio): 8.8 Fold Change and 8.80 ± 1.41 Fold Change
IC50 (EGFR^WT; HTRF, mean of three experiments, read-out: EGFR^WT IC50): 16 nM
HillSlope (best-fit value), EGFR inhibition (EGFR^WT; supplement graph): -0.3524
LogIC50 (best-fit value), EGFR inhibition (EGFR^WT; [3]): 1.193
IC50 (EGFR^WT; supplement graph, axis Log (nM), read-out: IC50 (best-fit value of graph), EGFR inhibition): 15.6 nM

Reference: paper PMC9466626, “Discovery of new 1H-pyrazolo[3,4-d]pyrimidine derivatives as anticancer agents targeting EGFR^WT and EGFR^T790M” (Journal of Enzyme Inhibition and Medicinal Chemistry, 2022)
